System: hamsters
Experiment: Post-coital antifertility activity in pregnant hamsters, subcutaneous (days 4-8, autopsy day 14)
Assay type: in vivo, Syrian golden hamsters
Details: 10 mg/kg s.c. daily for 5 days, days 4-8 of pregnancy, sesame oil
Procedure: Representative experiments for assessing antifertility activity were carried out with femal Syrian golden hamsters weighing 100 to 130 g. The animals were mated and the presence of sperm in the vagina was taken as evidence of mating. […] Pregnancy was later confirmed at the time of autopsy by presence of fetuses or implantation sites in the uterus. Even if an animal aborts the fetus, implantation scars still remain as evidence that the animal has been pregnant.
The animals were autopsied on day 14 of pregnancy and the uteri were examined for evidence of pregnancy (implantation sites, fetal resorptions or live fetuses), hemorrage, and evidence of abnormalities of the uterus, placenta or fetuses.

How did the “antifertility activity (active: reduction of live fetuses in at least 60% of the treated animals)” value turn out when `c1ccc(-c2n[nH]c(-c3ccccc3)n2)cc1` [3,5-diphenyl-1H-1,2,4-triazole, reference compound] was run?
Its value is “much less active”.

How did the “antifertility activity (active: reduction of live fetuses in at least 60% of the treated animals)” value turn out when `COc1cccc(-c2n[nH]c(-c3ccccc3C)n2)c1` [Example 1, 3-(m-Methoxyphenyl)-5-(o-tolyl)-1H-1,2,4-triazole] was run?
The value was “active”.

With `COc1ccccc1-c1n[nH]c(-c2ccccc2C)n1` [Example 4, 3-(o-Methoxyphenyl)-5-(o-tolyl)-1H-1,2,4-triazole] as the molecule, how does the “antifertility activity (active: reduction of live fetuses in at least 60% of the treated animals)” value read?
The value was “active”.

`CCc1ccccc1-c1nc(-c2cccc(F)c2)n[nH]1` [Example 18, 5-(o-Ethylphenyl)-3-(m-fluorophenyl)-1H-1,2,4-triazole] was tested. Which “antifertility activity (active: reduction of live fetuses in at least 60% of the treated animals)” value did it give?
Its value is “active”.

With `CCc1ccccc1-c1nc(-c2ccc3c(c2)OCO3)n[nH]1` [Example 22, 5-(o-Ethylphenyl)-3-(3,4-methylenedioxyphenyl)-1H-1,2,4-triazole] as the molecule, how does the “antifertility activity (active: reduction of live fetuses in at least 60% of the treated animals)” value read?
The value was “active”.

How did the “antifertility activity (active: reduction of live fetuses in at least 60% of the treated animals)” value turn out when `Cc1ccc(-c2nc(-c3ccccc3)n[nH]2)c(C)c1` [Example 25, 5-(2,4-Dimethylphenyl)-3-phenyl-1H-1,2,4-triazole] was run?
The value was “active”.

With `COc1cccc(-c2n[nH]c(-c3ccc(C)cc3C)n2)c1` [Example 26, 5-(2,4-Dimethylphenyl)-3-(m-methoxyphenyl)-1H-1,2,4-triazole] as the molecule, how does the “antifertility activity (active: reduction of live fetuses in at least 60% of the treated animals)” value read?
Its value is “active”.

With `Cc1cc(Cl)ccc1-c1nc(-c2ccccc2)n[nH]1` [Example 29, 5-(4-Chloro-2-methylphenyl)-3-phenyl-1H-1,2,4-triazole] as the molecule, how does the “antifertility activity (active: reduction of live fetuses in at least 60% of the treated animals)” value read?
The value was “active”.

For `COc1cccc(-c2n[nH]c(-c3ccc(Cl)cc3C)n2)c1` [Example 30, 5-(4-Chloro-2-methylphenyl)-3-(m-methoxyphenyl)-1H-1,2,4-triazole], which “antifertility activity (active: reduction of live fetuses in at least 60% of the treated animals)” value is on record?
The value was “active”.

Which “antifertility activity (active: reduction of live fetuses in at least 60% of the treated animals)” value does the source give for `COc1cccc(-c2n[nH]c(-c3cc(Cl)ccc3C)n2)c1` [Example 32, 5-(5-Chloro-2-methylphenyl)-3-(m-methoxyphenyl)-1H-1,2,4-triazole] here?
Its value is “active”.

System: rats
Experiment: Anti-reproductive activity in pregnant rats, subcutaneous (5 days from day 6, autopsy day 16)
Assay type: in vivo, Sprague-Dawley rats
Details: Rattus norvegicus, sc, 384 h, 20 mg/kg s.c., five consecutive days from day 6 of pregnancy, sesame oil, read-out: reduction of live fetuses, % of the treated rats
Procedure: The same criteria and experimental conditions as above were also applied when the anti-reproductive activity of the compounds of the invention was investigated in other animal species such as, for instance, rats, dogs, monkeys and baboons. In representative experiments, female Sprague-Dawley rats weighing from 200 to 300 g. were treated subcutaneously with a dosage of 20 mg/kg of the compound to be tested, dissolved in sesame oil, for five consecutive days starting from day 6 of pregnancy.

With `CCOc1cccc(-c2n[nH]c(-c3ccccc3C)n2)c1` [Example 9, 3-(m-Ethoxyphenyl)-5-(o-tolyl)-1H-1,2,4-triazole] as the molecule, how does the responders at 20 mg/kg read?
The responders at 20 mg/kg was no less than 60%.

For `C=CCOc1cccc(-c2n[nH]c(-c3ccccc3C)n2)c1` [Example 10, 3-(m-Allyloxyphenyl)-5-(o-tolyl)-1H-1,2,4-triazole], which responders at 20 mg/kg is on record?
Its responders at 20 mg/kg is no less than 60%.

Which responders at 20 mg/kg does the source give for `Cc1ccccc1-c1nc(-c2ccc(-c3ccccc3)cc2)n[nH]1` [Example 11, 3-(1,1'-Biphenyl-4-yl)-5-(o-tolyl)-1H-1,2,4-triazole] here?
The responders at 20 mg/kg was no less than 60%.

With `C=CCOc1cccc(-c2n[nH]c(-c3ccccc3CC)n2)c1` [Example 13, 3-(m-Allyloxyphenyl)-5-(o-ethylphenyl)-1H-1,2,4-triazole] as the molecule, how does the responders at 20 mg/kg read?
Its responders at 20 mg/kg is no less than 60%.

Which responders at 20 mg/kg does the source give for `CCc1ccccc1-c1nc(-c2ccc(Cl)cc2)n[nH]1` [Example 14, 3-(p-Chlorophenyl)-5-(o-ethylphenyl)-1H-1,2,4-triazole] here?
The responders at 20 mg/kg was no less than 60%.

For `CC(C)c1ccccc1-c1nc(-c2ccccc2)n[nH]1` [Example 15, 5-(o-Isopropylphenyl)-3-phenyl-1H-1,2,4-triazole], which responders at 20 mg/kg is on record?
Its responders at 20 mg/kg is no less than 60%.

For `COc1cccc(-c2n[nH]c(-c3ccccc3C(C)C)n2)c1` [Example 16, 5-(o-Isopropylphenyl)-3-(m-methoxyphenyl)-1H-1,2,4-triazole], which responders at 20 mg/kg is on record?
The responders at 20 mg/kg was no less than 60%.

— patent US4379155A, “3,5-Disubstituted-1H-1,2,4-triazole derivatives” (priority 1981, dated 1983)
